Here are results for twelve compounds from patent publication US8962658B2, “Fluoralkylcarbonyl-oxadiazoles” (Universite de Droit et de la Sante de Lille 2, priority 2011, dated 2015).

Converted amounts (≈) assume the structure as drawn. Bounds are passed on as bounds.

Data set [1] can be described thus: Pharmacokinetic experiments (DMSO formulation). Format: in vivo, Swiss mice. The settings on record: mice, oral, dose 20 mg/kg, vehicle 100% DMSO.
Protocol: Pharmacokinetic experiments (DMSO Formulation). Compounds were administered at 20 mg per kg body weight by oral route to Swiss mice (22-24 g) (WIV-ISP breeding). Three mice per time point were anesthetized with ketamine-xyalzine and bled them at 10 min, 20 min, 30 min, 1 h, 2 h, 3 h and 6 h after administration of a single dose of ligands. Blood was collected from the brachial region on lithium heparinated tubes in order to prevent coagulation.
(§1) Plasma samples preparation. Plasma samples were thawed on ice. Aliquots of 50 μL were precipitated with 450 μL of ice cold acetonitrile containing internal standard (1 μM). The samples were vigorously mixed with a Vortex, centrifuged at 10000 rpm, at 4° C. for 10 min and the supernatants were transferred into Matrix tubes for LC-MS-MS analysis. Spiked standard solutions (10, 50, 100, 500, 1000, 5000, 10000 and 50000 nM) were prepared the same way.
Data set [2] can be described thus: in vitro. The settings on record: CD-1, mouse, microsomes, pH 7.4.
Data set [3] deals with M. tuberculosis H37Rv-GFP in Raw264.7 macrophages. Description: microbe, parasite or virus in culture. The class given is cell-based. The settings on record: Mycobacterium tuberculosis.
The conditions of data set [4]: pH 7.4, PBS.
Data set [5] can be described thus: Pharmacokinetic experiments (aqueous hydroxypropyl-β-cyclodextrin formulation). Format: in vivo, CD1 female mice. To be noted: mice, single oral dose 20 mg/kg, vehicle aqueous 100 mM hydroxypropyl-β-cyclodextrin.
Protocol: Pharmacokinetic experiments (aqueous hydroxypropyl-β-cyclodextrin Formulation). Compounds solubilized in aqueous hydroxypropyl-β-cyclodextrin solution (100 mM) were administered in single dose (20 mg/kg) to CD1 female mice (25-30 g) (Charles River Laboratories). […] Mice were immediately sacrificed by cervical dislocation. Three mice were dosed per kinetics time point.
as §1
A short description of data set [6]: physchem. The settings on record: pH 7.4, aqueous buffer, kinetic from dmso stock.
Setting [7] is: RAW264.7, Table 1, […], mean of two experiments.

For `O=C(CCC(F)(F)F)N1CC[C@@H](c2nc(-c3cccs3)no2)C1` [Compound 2], the “AUC∞” value in data set [1] turned out to be 100 ng·h/mL. In data set [2], this compound came in with a microsomal CLint of 4 µL/min/mg. In addition, the concentration giving a half-maximal response (EC50) in data set [3] (RAW264.7) was determined as 400 nM. This compound also gave a Solubility in data set [4] of 80 µg/mL (≈ 232 µM).
Turning to `O=C(CCC(F)(F)F)N1CCC(c2nc(-c3cccs3)no2)CC1` [Compound 3, 4-4-4-trifluoro-1-[4-(3-thiophen-2-yl-[1,2,4]oxadiazol-5-yl)-piperidin-1-yl]butan-1-one, reference compound], in data set [2], the intrinsic metabolic clearance (microsomal CLint) came out at 213 µL/min/mg. Moreover, the 50% effective concentration (EC50) in data set [3] (RAW264.7) and in data set [3] (setting [7]) was 100 nM in each case. In data set [4], this compound had a Solubility of 150 µg/mL (≈ 417 µM).
As for `O=C(CCC(F)(F)F)N1CCC(c2nc(-c3nccs3)no2)CC1` [Compound 5, 4,4,4-Trifluoro-1-[4-(3-thiazol-2-yl-1,2,4-oxadiazol-5-yl)-piperidin-1-yl]-butan-1-one], the “AUC∞” value came to 73500 ng·h/mL in data set [1] and 100500 ng·h/mL in data set [5]. In data set [2], this compound had a microsomal CLint of 37 µL/min/mg. Further, the concentration for a half-maximal effect (EC50) in data set [3] (RAW264.7) is at most 500 nM; in data set [3] (setting [7]), 500 nM. In data set [4], the Solubility came to 300 µg/mL (≈ 832 µM).
`COc1ccc2nc(-c3noc(C4CCN(C(=O)CCC(F)(F)F)CC4)n3)sc2c1` [Compound 7, 4,4,4-Trifluoro-1-{4-[3-(6-methoxy-benzothiazol-2-yl)-1,2,4-oxadiazol-5-yl]-piperidin-1-yl}-butan-1-one] gave a microsomal CLint in data set [2] of 197 µL/min/mg. This compound displayed a concentration for a half-maximal effect (EC50) in data set [3] (setting [7]) of 200 nM. This compound had a Solubility in data set [4] of 6 µg/mL (≈ 13.6 µM).
Turning to `O=C(CCC(F)(F)F)N1CCC(c2nc(-c3ccccc3)no2)CC1` [Compound 8, 4,4,4-Trifluoro-1-[4-(3-phenyl-1,2,4-oxadiazol-5-yl)-piperidin-1-yl]-butan-1-one], the EC50 in data set [3] (RAW264.7) was at most 500 nM; in data set [3] (setting [7]), 500 nM. The Solubility in data set [4] was found to be 40 µg/mL (≈ 113 µM).
Consider `O=C(CCC(F)(F)F)N1CCC(c2nc(C3CCCC3)no2)CC1` [Compound 32, 1-[4-(3-Cyclopentyl-1,2,4-oxadiazol-5-yl)-piperidin-1-yl]-4,4,4-trifluoro-butan-1-one], for which the concentration giving a half-maximal response (EC50) in data set [3] (setting [7]) worked out at 800 nM.
In data set [3] (RAW264.7), `O=C(CCC(F)(F)F)N1CC[C@@H](c2nc(-c3nccs3)no2)C1` [Compound 41, 4,4,4-trifluoro-1-[(3R)-3-[3-(1,3-thiazol-2-yl)-1,2,4-oxadiazol-5-yl]pyrrolidin-1-yl]butan-1-one] returned an EC50 of 6300 nM.
In turn, `O=C(CCCC(F)(F)F)N1CCC(c2nc(-c3nccs3)no2)CC1` [Compound 42, 5,5,5-Trifluoro-1-[4-(3-thiazol-2-yl-1,2,4-oxadiazol-5-yl)-piperidin-1-yl]-pentan-1-one] gave a microsomal CLint in data set [2] of 15 µL/min/mg. Besides, a half-maximal response in data set [3] (RAW264.7) (EC50) required 60 nM. The “AUC∞” value in data set [5] was found to be 98600 ng·h/mL. In data set [4], this compound returned a Solubility of 410 µg/mL (≈ 1100 µM).
Regarding `O=C(CCCC(F)(F)F)N1CC[C@@H](c2nc(-c3cccs3)no2)C1` [Compound 43, 5,5,5-trifluoro-1-[(3R)-3-[3-(thiophen-2-yl)-1,2,4-oxadiazol-5-yl]pyrrolidin-1-yl]pentan-1-one], in data set [2], the intrinsic clearance (microsomal CLint) at 1 μM amounted to 297 µL/min/mg. Also, in data set [6], the solubility at 24 h is 237 µg/mL (≈ 659 µM). In data set [3] (RAW264.7), this compound had a 50% effective concentration (EC50) of 100 nM.
Regarding `O=C(CCCC(F)(F)F)N1CCC(c2nc(-c3cccs3)no2)CC1` [Compound 44, 5,5,5-trifluoro-1-{4-[3-(thiophen-2-yl)-1,2,4-oxadiazol-5-yl]piperidin-1-yl}pentan-1-one], the response in data set [3] (RAW264.7) was half-maximal at 70 nM (EC50).
Regarding `O=C(CCCC(F)(F)F)N1CCC(c2nc(-c3ccccc3)no2)CC1` [Compound 45, 5,5,5-trifluoro-1-[4-(3-phenyl-1,2,4-oxadiazol-5-yl)piperidin-1-yl]pentan-1-one], the intrinsic metabolic clearance (microsomal CLint) at 1 μM in data set [2] came out at 73 µL/min/mg. This compound also returned a solubility at 24 h in data set [6] of 80 µg/mL (≈ 218 µM). Besides, in data set [3] (RAW264.7), the EC50 is 100 nM.
For `CS(=O)(=O)c1ccc(-c2noc(C3CCN(C(=O)CCCC(F)(F)F)CC3)n2)cc1` [Compound 46, 5,5,5-trifluoro-1-{4-[3-(4-methanesulfonylphenyl)-1,2,4-oxadiazol-5-yl]piperidin-1-yl}pentan-1-one] the same measures were 14 µL/min/mg, 80 µg/mL (≈ 180 µM) and 20 nM.

A word on the microsomal CLint: it is the rate of metabolic loss divided by the concentration. A high value points to faster metabolism. For orientation: EC50 means the concentration that produces a half-maximal response. A lower EC50 goes with higher potency in that assay. In general, Solubility refers to the concentration that dissolves in the medium under given conditions. Low readings indicate a poorly soluble substance, high ones a readily soluble substance. One may read the solubility as the dissolved amount per volume that the medium holds. A low value points to a poorly soluble substance.
